Measurements: PubChem BioAssay (NCI)
Where “and” joins values, the source holds several entries; their conditions need not be identical. Identical values can stand only once.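 Growth conditions: 96-well plates. Treatment: test compound, 48 hours, 5 concentrations. Analysis: linear interpolation between bracketing concentrations; unreached endpoints set to highest concentration. Abbreviation: GI50, concentration required for 50% inhibition of growth. Definition used: TGI = concentration required for complete inhibition of growth.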

Test system: MDA-MB-468 breast
Assay: NCI-60 cell line screen, 48 h

Compound: Cn1cc(-c2nc(-c3c[nH]c4ccncc34)cs2)c2cc(F)ccc21
- GI50: 1400 nM
- TGI: 2.89 µM

Compound: Cn1c(/C=C(\C#N)c2cccc(C(F)(F)F)c2)nc2c(N3CCOCC3)nc(Cl)nc21
- GI50: 432 nM
- TGI: 1.63 µM

Compound: O=C1NC(=O)C(c2ccc(Cl)cc2)=C1Nc1ccc(Cl)c(C(=O)O)c1
- GI50: > 25000 nM
- TGI: > 25 µM

Compound: CCN(CC)CCCC(C)Nc1c2ccc(Cl)cc2nc2cc(OC)c(OC)cc12 (stereo unspecified)
- GI50: 1300 nM
- TGI: 2.83 µM

Compound: COc1ccc(SC2c3ccc(C)cc3Oc3nc(N)c(C#N)c(N)c32)cc1 (stereo unspecified)
- GI50: 1790 nM
- TGI: 3.6 µM

Compound: COc1ccc(C2=Nc3c/c(=C\c4c(O)[nH]c5ccc(Cl)cc45)ccc3=N2)cc1
- GI50: 1480 nM
- TGI: 3.07 µM

Compound: CCO/C=N/C1=C(C#N)C(c2ccc(Cl)cc2)c2sc3c(C)cccc3c2O1 (stereo unspecified)
- GI50: 386 nM
- TGI: 14.5 µM

Compound: Cc1cc([N+](=O)[O-])ccc1NS(=O)(=O)c1cc(Cl)ccc1Cl
- GI50: 1660 nM
- TGI: 7.61 µM

Compound: Cc1cc(Nc2ccc(F)cc2)nc(N2CCN(c3ccnc4cc(Cl)ccc34)CC2)n1
- GI50: 2720 nM
- TGI: > 100 µM

Compound: COc1cc(-c2csc(NC(=O)Nc3cc(C(F)(F)F)cc(C(F)(F)F)c3)n2)cc(OC)c1OC
- GI50: 1330 nM
- TGI: 9.28 µM

Compound: O=C(O)c1ccc([S-])cc1.[Au+].c1ccc(CN2[CH-]N(Cc3ccccc3)C(c3ccccc3)=C2c2ccccc2)cc1
- GI50: 188 nM
- TGI: 0.873 µM

Compound: COc1cc2c(cc1OC)-c1ccc3cc4c(cc3c1N(CCN(C)C)C2)OCO4
- GI50: 210 nM
- TGI: 0.762 µM

Compound: CCCOC(=O)N[C@H]1CCc2cc(OC)c(OC)c(OC)c2-c2ccc(SC)c(=O)cc21
- GI50: < 10 nM
- TGI: 13.5 µM

Compound: COc1ccc2c(c1)CCc1[nH]nc(-c3cc(OC)c(OC)c(OC)c3)c1-2
- GI50: < 10 nM
- TGI: < 0.01 µM

Compound: CCOc1ccc2nc(-c3cccc(OCC(=O)NC(C)C)c3)nc(Nc3ccc(-c4cn[nH]c4)cc3)c2c1
- GI50: 2310 nM
- TGI: 14.9 µM

Compound: CN1C(=O)C(=Cc2cn(Cc3ccccc3)c3ccccc23)C(=O)N(C)C1=O
- GI50: 63.9 nM
- TGI: 0.158 µM

Compound: COc1cc(C2c3cc4c(cc3OC3(OC)COC(=O)C23)OCO4)cc(OC)c1OC (stereo unspecified)
- GI50: 616 nM
- TGI: 88.6 µM

Compound: CC(C)(C)NCCC(O)c1cc2c(Cl)cc(Cl)cc2c2cc(C(F)(F)F)ccc12 (stereo unspecified)
- GI50: 1590 nM
- TGI: 3.06 µM

Compound: O=C(O)c1ccc2c3c(ncnc13)-c1ccccc1C2=O
- GI50: > 81900 nM
- TGI: > 100 µM

Compound: Oc1ccc2ccccc2c1C1NN=C(c2ccccc2)S1 (stereo unspecified)
- GI50: 536 nM
- TGI: 3.94 µM

Compound: COc1cc(F)cc([C@@H](CO)NC(=O)[C@@H](C)N2Cc3ccc(-c4nc(NC5CCOCC5)ncc4Cl)cc3C2=O)c1
- GI50: 1820 nM
- TGI: 17 µM

Compound: Cc1ccc(C(=O)/C(=C\c2ccc([N+](=O)[O-])cc2)S(=O)Cc2ccc(F)cc2)cc1 (stereo unspecified)
- GI50: 1850 nM
- TGI: 3.69 µM

Compound: CN[C@@H]1C[C@H]2O[C@@](C)([C@@H]1OC)n1c3ccccc3c3c4c(c5c6ccccc6n2c5c31)C(=O)N[C@H]4O
- GI50: 17.6 nM
- TGI: 0.105 µM

Compound: COc1ccc2c(c1)c1nc3cc(C)c(C)cc3nc1n2CCN(C)C
- GI50: 761 nM
- TGI: 2.45 µM

Compound: C[n+]1c2ccccc2c(Nc2ccc(NS(=O)(=O)CCCCN=C(N)N)cc2)c2ccc(N)cc21
- GI50: 989 nM
- TGI: 26.1 µM

Compound: O=[N+]([O-])c1ccc2nc(/C=C(\O)c3ccccc3)c(/C=C(\O)c3ccccc3)nc2c1
- GI50: 4000 nM
- TGI: 61.7 µM

Compound: CC1(C)N=C(N)N=C(N)N1c1ccc(CCc2ccc(Cl)cc2S(=O)(=O)F)c(Cl)c1
- GI50: 3590 nM
- TGI: 24.2 µM

Compound: Cc1cccc(Cl)c1NC(=O)c1cnc(Nc2cc(N3CCOCC3)cc(N3CCOCC3)c2)s1
- GI50: 326 nM
- TGI: 2.77 µM

Compound: O=CC(Br)C(Br)c1ccccc1 (stereo unspecified)
- GI50: 1480 nM
- TGI: 3.65 µM

Compound: CN1CCC(C(=O)Nc2n[nH]c3nc(-c4ccc(O)cc4)c(Br)cc23)CC1
- GI50: 486 nM and 779 nM
- TGI: 1.41 µM and 2.83 µM

Compound: O=C(NCCN1CCC(O)CC1)c1cc2c(o1)C(=O)c1ccccc1C2=O
- GI50: 202 nM
- TGI: 0.559 µM

Compound: COc1ccc(-c2cn(-c3cccc(C(=O)/C=C/c4ccc(O)c(OC)c4)c3)c(=O)[nH]2)cc1
- GI50: 5460 nM
- TGI: > 100 µM

Compound: CSc1n(Cc2ccc3ccccc3c2)c(C)c[n+]1Cc1ccc2ccccc2c1
- GI50: 211 nM
- TGI: 0.672 µM

Compound: N#Cc1ccc(C2C3=C(CCCC3=O)OC3=C2C(=O)c2ccccc2C3=O)cc1 (stereo unspecified)
- GI50: 309 nM
- TGI: 0.867 µM

Compound: COc1ccc(-c2nn(-c3cccc(Cl)c3)cc2-c2c(C#N)c(=O)n3[nH]c(-c4ccc(C)cc4)nc3c2C#N)cc1
- GI50: 1050 nM
- TGI: 2.88 µM

Compound: CCCCOC(=O)c1ccc(NC(=O)CCl)cc1
- GI50: 1780 nM
- TGI: 4.08 µM

Compound: COc1ccc2c3c(c4ccccc4cc13)C(=O)N(CCN(C)CCN)C2=O
- GI50: 289 nM
- TGI: 1.16 µM

Compound: c1ccc(Nn2c(CCCCCCCCc3nnc(COc4ccccc4)n3Nc3ccccc3)nnc2COc2ccccc2)cc1
- GI50: 12800 nM and 61600 nM
- TGI: > 300 µM

Compound: CCCC(=O)NC(c1cccnc1)c1cc(C(C)(C)C)c2cccnc2c1O (stereo unspecified)
- GI50: 2310 nM
- TGI: 8.98 µM

Compound: c1cncc(-c2nc3ccccc3s2)c1
- GI50: > 100000 nM
- TGI: > 100 µM

Compound: COc1ccc([I+]c2ccccc2)cc1
- GI50: 253 nM
- TGI: > 36.6 µM

Compound: Nc1nc2ccc3[nH]ncc3c2c2c1CCCC2
- GI50: 1460 nM
- TGI: 2.92 µM

Compound: COc1ccc(/C(=N\NC(N)=S)c2ccc(Cl)cc2)cc1OC
- GI50: 1910 nM
- TGI: 7.99 µM
